Experiments:
soybean plants [1] = assay: Fe furrow application trial, biomass measurements; format: in vivo; conditions: in furrow at transplanting, Fe rate 0.616 mg/pot, harvested at V3-stage
Protocol: (§1) One week after application, root and shoot masses were determined by drying the above- and below-ground biomass for 12 hours at […], then weighing each plant to the third decimal in grams.
(§2) Alkaline soil having a pH of 7.9 was made by mixing air-dried Michigan topsoil (sieved) and fine sand (50:50, v/v). Next, 0.5% w/w calcium hydroxide was added to the soil-sand mixture and mixed well. Water was then added (15% v/v), and the pots were kept in that condition for a week to allow time for alkalinity fully develop. The pH was checked, and the soil was then added to 1-liter pots. There were thirty pots total, providing five replicates for each of the six treatments described below.
(§3) Soybean seeds (FS HISOY® Soybeans) were planted in trays filled with sieved topsoil. A base fertilizer comprising water solution made with urea (N), and monoammonium phosphate (P), and potassium sulfate (K) was applied to each tray before planting. The application rate was of 50-50-50 ppm NPK. Seedlings were irrigated with DI water. The trays were kept in a plant growth chamber so that each seedling received the same environmental exposure during growth.
(§4) Sixteen days after the seeds were planted as described in Part 2 of this Example, the seedlings were transplanted to the pots prepared in Part 1 of this Example. A fertilizer solution was prepared by mixing 16.67 g of Nova PeKacid® 0-60-20 (a phosphorus and potassium fertilizer, available from ICL Specialty Fertilizers), 13.33 g of SOP fertilizer, and 11.2 L of DI water. At the time of transplant, 56.5 mL of this fertilizer solution were added to each pot, and this same fertilizer solution application was repeated weekly until harvest.
(§5) A micronutrient fertilizer solution was prepared by mixing the compounds of Table 19 in 1 L of DI water. At the time of transplanting, 10 mL of this micronutrient fertilizer solution was added to each pot. This application was not repeated during the growth cycle.
(§6) Using a pipette, an iron test solution (comparative or Option 11 solution from Example 9—see Table 20) was applied about 1 cm below the soil surface, near each plant except for the negative control. This was the only iron test solution application.
(§7) All plants received about 100 mL of DI water every other day.
(§8) Shoot and root biomasses were also determined, following the procedure described in Example 7.

[2] = 75% by weight solution mixed with 25% by weight of a 50% phosphonate solution, room temperature, one week; FIG. 3
Protocol: The source of iron was iron(II) sulfate heptahydrate, the base utilized was Mg(OH)2, and the citric acid:malic acid ratio was 50:50. The ratio of metal:base:total acid was 4:4:3.
A comparative solution was prepared by mixing 75% of an iron sulfate solution with 25% of the same phosphonate, also under ambient conditions. The solutions were permitted to sit for one week to look for any unwanted precipitation (i.e., iron complexed with the phosphonate).

soybean plants [3] = assay: Fe furrow application trial, SPAD measurements; format: in vivo; conditions: in furrow at transplanting, Fe rate 0.616 mg/pot, harvested at V3-stage
Protocol: (§9) The plants were analyzed for leaf chlorophyll concentrations using a Soil Plant Analysis Development (“SPAD”) chlorophyll meter (SPAD 502 Plus Chlorophyll Meter, from Spectrum Technologies, Inc.), which enables an in situ, nondestructive technique. That is, not sample processing was required, and the tests were carried out on live plants. Readings were taken immediately before the first foliar treatment and again at 72 hours after the second foliar treatment, and the % SPAD increase of each sample was determined.
as §2, §3, §4, §5, §6, §7
Thirty-six days after transplantation, the plants were harvested. SPAD measurements were taken as described Example 9. […] A total of nine readings were taken per trifoliate (3 per leaf).

soybean plants [4] = assay: Fe foliar application trial, biomass measurements; format: in vivo; conditions: foliar at V3 stage, Fe rate 0.616 mg/pot (Table 20), harvested after 1 week
Protocol: as §1, §8
(§10) Example 11 was exactly repeated except that instead of treating the soil with an iron solution by pipetting the solution at the time of transplantation, the plants were treated foliarly at V3 stage of growth and harvested 1 week after treatment. The SPAD, biomass, and iron uptake results can be found in Tables 24-26, respectively, while the Fe(III) reductase gene expression results can be found in FIG. 14.

soybean plants [5] = assay: Fe foliar application trial, iron uptake by ICP; format: in vivo; conditions: foliar at V3 stage, Fe rate 0.616 mg/pot (Table 20), harvested after 1 week
Protocol: (§11) Iron concentrations for the various plants were also determined and compared at the time of harvest, which was at least 3 days after the last treatment application. Again, each treatment had five replicates. All samples were washed in acetic acid and rinsed before being prepared for analysis by Inductively Coupled Plasma (“ICP”) Spectroscopy. Dried samples were combusted at 450° C. and extracted with concentrated hydrochloric acid, followed by analysis using ICP.
(§12) Iron uptake was determined using ICP as described in Example 9.
as §10

soybean plants [6] = assay: Fe furrow application trial, iron uptake by ICP; format: in vivo; conditions: in furrow at transplanting, Fe rate 0.616 mg/pot, harvested at V3-stage
Protocol: as §11, §2, §3, §4, §5, §6, §7, §12

soybean plants [7] = assay: Fe foliar application trial, SPAD measurements; format: in vivo; conditions: foliar at V3 stage, Fe rate 0.616 mg/pot (Table 20), harvested after 1 week
Protocol: as §9
Thirty-six days after transplantation, the plants were harvested. SPAD measurements were taken as described Example 9. Fully grown youngest trifoliate and second youngest trifoliate were selected for these SPAD measurements. A total of nine readings were taken per trifoliate (3 per leaf).
as §10

With `O=S(=O)([O-])[O-].[Fe+2]` [FeSO4, iron sulfate] the “Root average dry biomass” value (soybean plants [1]) was 0.540 g, the “Shoot average dry biomass” value (soybean plants [1]) was 1.992 g and the “extent of coordination complexing of iron (unwanted precipitation with phosphonate)” value [2] was “which was not the case”. For the same compound, the “Average SPAD value, second youngest trifoliate (old)” value (“Average SPAD value … (old)” below) (soybean plants [3]) was 30.74, the “Average SPAD value, youngest trifoliate (young)” value (shortened to “Average SPAD value … (young)”) (soybean plants [3]) was 32.98 and the “Root average weight/plant (dry biomass)” value (soybean plants [4]) was 0.601 g. For the same compound, the “Shoot average weight/plant (dry biomass)” value (soybean plants [4]) was 2.199 g, the “Average Fe uptake, root” value (soybean plants [5]) was 273.02 μg/plant and the “Average Fe uptake, shoot” value (soybean plants [5]) was 217.88 μg/plant. The “Average Fe uptake, root” value (soybean plants [6]) was 172.17 μg/plant, the “Average Fe uptake, shoot” value (soybean plants [6]) was 116.20 μg/plant and the “Average SPAD value … (old)” value (soybean plants [7]) was 29.84. The “Average SPAD value … (young)” value (soybean plants [7]) was 33.64.
For `O=C([O-])CN(CCN(CC(=O)[O-])CC(=O)[O-])CC(=O)[O-].[Fe+3]` [FeEDTA, iron chelated with EDTA], the “Root average dry biomass” value (soybean plants [1]) was 0.650 g, the “Shoot average dry biomass” value (soybean plants [1]) was 2.276 g and the “Average SPAD value … (old)” value (soybean plants [3]) was 37.94. The “Average SPAD value … (young)” value (soybean plants [3]) was 39.12, the “Root average weight/plant (dry biomass)” value (soybean plants [4]) was 0.661 g and the “Shoot average weight/plant (dry biomass)” value (soybean plants [4]) was 2.514 g. The “Average Fe uptake, root” value (soybean plants [5]) was 246.69 μg/plant, the “Average Fe uptake, shoot” value (soybean plants [5]) was 348.28 μg/plant and the “Average Fe uptake, root” value (soybean plants [6]) was 183.64 μg/plant. The “Average Fe uptake, shoot” value (soybean plants [6]) was 188.92 μg/plant, the “Average SPAD value … (old)” value (soybean plants [7]) was 32.74 and the “Average SPAD value … (young)” value (soybean plants [7]) was 32.06.

Reference: patent US11560339B2, “Micronutrient foliar solutions” (KOCH AGRONOMIC SERVICES, LLC, priority 2019, dated 2023)
